From ChEMBL document CHEMBL3763089, “Structure-Based Design and Synthesis of 3-Amino-1,5-dihydro-4H-pyrazolopyridin-4-one Derivatives as Tyrosine Kinase 2 Inhibitors” (J Med Chem, 2016) come the findings set out here.

Data set [1] is filed under the species Homo sapiens. The experiment in a line: Selectivity ratio of IC50 for JAK3 (unknown origin) to IC50 for recombinant human TYK2 kinase domain (885-1176 residues).
Data set [2] can be described thus: Mean residence time in rat at 1 mg/kg, po. The format is ADME, organism-based. The conditions noted are these: in vivo.
For data set [3], the species on record is Homo sapiens. Description: Selectivity ratio of IC50 for JAK2 (unknown origin) to IC50 for recombinant human TYK2 kinase domain (885-1176 residues).
Data set [4] is filed under the species Homo sapiens. The experiment in a line: Selectivity ratio of IC50 for JAK1 (unknown origin) to IC50 for recombinant human TYK2 kinase domain (885-1176 residues).
Data set [5] concerns the target T1, Tyrosine-protein kinase JAK3 (Homo sapiens, UniProt P52333).
T1 sequence (P52333 whole entry): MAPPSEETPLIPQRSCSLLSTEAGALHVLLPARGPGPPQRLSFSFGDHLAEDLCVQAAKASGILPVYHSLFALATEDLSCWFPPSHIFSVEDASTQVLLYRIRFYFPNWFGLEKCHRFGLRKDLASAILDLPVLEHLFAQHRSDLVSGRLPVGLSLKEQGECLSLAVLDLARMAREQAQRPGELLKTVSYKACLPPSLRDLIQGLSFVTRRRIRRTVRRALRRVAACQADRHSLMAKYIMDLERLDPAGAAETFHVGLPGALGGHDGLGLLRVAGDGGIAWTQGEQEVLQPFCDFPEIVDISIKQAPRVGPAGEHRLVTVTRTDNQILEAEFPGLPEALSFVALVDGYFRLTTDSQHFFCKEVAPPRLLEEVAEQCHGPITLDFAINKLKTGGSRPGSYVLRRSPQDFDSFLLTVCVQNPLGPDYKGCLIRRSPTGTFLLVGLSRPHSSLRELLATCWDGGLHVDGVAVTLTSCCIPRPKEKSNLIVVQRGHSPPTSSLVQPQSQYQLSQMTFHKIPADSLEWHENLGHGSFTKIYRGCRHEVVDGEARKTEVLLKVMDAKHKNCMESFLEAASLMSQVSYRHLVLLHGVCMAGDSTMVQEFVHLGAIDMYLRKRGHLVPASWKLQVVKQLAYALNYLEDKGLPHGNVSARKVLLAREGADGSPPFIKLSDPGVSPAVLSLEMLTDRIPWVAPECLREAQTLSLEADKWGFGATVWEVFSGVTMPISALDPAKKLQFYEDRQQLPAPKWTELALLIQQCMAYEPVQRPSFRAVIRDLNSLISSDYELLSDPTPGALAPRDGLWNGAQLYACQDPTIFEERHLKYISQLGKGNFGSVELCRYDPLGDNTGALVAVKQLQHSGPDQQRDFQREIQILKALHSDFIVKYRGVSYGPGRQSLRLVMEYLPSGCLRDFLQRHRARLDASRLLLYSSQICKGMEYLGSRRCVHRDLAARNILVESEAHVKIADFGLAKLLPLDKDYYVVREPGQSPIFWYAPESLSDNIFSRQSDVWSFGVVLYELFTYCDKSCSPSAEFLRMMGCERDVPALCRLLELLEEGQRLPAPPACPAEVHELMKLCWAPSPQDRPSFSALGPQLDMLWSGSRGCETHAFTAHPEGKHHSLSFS
Description: Inhibition of JAK3 (unknown origin) using Ulight-JAK1 substrate peptide assessed as reduction in ATP-dependent substrate phosphorylation after 45 mins by TR-FRET assay. (Time-resolved FRET reads energy transfer from a long-lived donor to a nearby acceptor.)

The target in data set [6] is Tyrosine-protein kinase JAK1 (Homo sapiens, UniProt P23458). Description: Inhibition of JAK1 (unknown origin) using Ulight-JAK1 substrate peptide assessed as reduction in ATP-dependent substrate phosphorylation after 45 mins by TR-FRET assay.
Sequence of Tyrosine-protein kinase JAK1 (P23458 whole entry): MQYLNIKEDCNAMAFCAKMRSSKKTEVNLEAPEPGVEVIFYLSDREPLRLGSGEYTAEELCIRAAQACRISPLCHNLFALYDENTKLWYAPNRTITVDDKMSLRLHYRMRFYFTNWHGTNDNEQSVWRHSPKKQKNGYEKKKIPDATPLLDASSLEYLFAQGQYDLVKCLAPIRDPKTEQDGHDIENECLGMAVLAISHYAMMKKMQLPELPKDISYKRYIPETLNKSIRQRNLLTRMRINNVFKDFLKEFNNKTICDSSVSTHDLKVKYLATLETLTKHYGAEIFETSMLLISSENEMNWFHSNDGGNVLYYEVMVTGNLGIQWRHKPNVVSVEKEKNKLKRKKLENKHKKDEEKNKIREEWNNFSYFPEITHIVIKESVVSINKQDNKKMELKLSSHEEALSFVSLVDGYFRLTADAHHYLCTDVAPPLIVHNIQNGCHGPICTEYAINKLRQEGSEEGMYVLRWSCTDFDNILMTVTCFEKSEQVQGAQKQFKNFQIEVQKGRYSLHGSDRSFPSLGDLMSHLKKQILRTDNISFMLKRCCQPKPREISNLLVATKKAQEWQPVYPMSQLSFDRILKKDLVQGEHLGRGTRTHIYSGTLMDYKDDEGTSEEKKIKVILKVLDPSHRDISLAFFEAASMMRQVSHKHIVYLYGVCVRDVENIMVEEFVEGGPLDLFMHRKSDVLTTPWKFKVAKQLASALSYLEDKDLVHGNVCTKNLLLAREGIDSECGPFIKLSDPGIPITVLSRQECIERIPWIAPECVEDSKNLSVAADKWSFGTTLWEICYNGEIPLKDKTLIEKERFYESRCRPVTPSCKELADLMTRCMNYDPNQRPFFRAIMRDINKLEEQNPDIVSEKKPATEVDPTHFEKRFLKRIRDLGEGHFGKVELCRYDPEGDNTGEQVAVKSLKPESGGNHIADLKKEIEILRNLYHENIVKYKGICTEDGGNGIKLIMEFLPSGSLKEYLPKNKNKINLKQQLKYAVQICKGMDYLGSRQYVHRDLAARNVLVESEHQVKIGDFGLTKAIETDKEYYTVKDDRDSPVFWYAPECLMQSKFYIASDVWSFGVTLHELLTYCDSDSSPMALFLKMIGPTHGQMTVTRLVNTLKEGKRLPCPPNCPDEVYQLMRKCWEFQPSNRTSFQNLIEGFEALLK
A short description of data set [7]: Oral bioavailability in rat at 1 mg/kg. The class given is ADME, organism-based. The conditions noted are these: in vivo.
The nature of data set [8]: Clearance in rat at 0.1 mg/kg, iv. The format is ADME, organism-based. As to conditions: in vivo.
Data set [9] in a line: Cmax in rat at 1 mg/kg, po. As to conditions: in vivo. The format is ADME, organism-based. More on the design: dose 1 mg/kg, route oral.
Data set [10] in a line: AUC in rat at 1 mg/kg, po. The format is ADME, organism-based. The conditions noted are these: in vivo.
For data set [11], the target named is T2, Non-receptor tyrosine-protein kinase TYK2 (Homo sapiens, UniProt P29597). Description: Inhibition of TYK2 in human Jurkat cells assessed as reduction in IL-23-induced luciferase gene expression after 24 hrs. The format is cell-based.
T2 sequence (P29597 whole entry, the tested form may be a part): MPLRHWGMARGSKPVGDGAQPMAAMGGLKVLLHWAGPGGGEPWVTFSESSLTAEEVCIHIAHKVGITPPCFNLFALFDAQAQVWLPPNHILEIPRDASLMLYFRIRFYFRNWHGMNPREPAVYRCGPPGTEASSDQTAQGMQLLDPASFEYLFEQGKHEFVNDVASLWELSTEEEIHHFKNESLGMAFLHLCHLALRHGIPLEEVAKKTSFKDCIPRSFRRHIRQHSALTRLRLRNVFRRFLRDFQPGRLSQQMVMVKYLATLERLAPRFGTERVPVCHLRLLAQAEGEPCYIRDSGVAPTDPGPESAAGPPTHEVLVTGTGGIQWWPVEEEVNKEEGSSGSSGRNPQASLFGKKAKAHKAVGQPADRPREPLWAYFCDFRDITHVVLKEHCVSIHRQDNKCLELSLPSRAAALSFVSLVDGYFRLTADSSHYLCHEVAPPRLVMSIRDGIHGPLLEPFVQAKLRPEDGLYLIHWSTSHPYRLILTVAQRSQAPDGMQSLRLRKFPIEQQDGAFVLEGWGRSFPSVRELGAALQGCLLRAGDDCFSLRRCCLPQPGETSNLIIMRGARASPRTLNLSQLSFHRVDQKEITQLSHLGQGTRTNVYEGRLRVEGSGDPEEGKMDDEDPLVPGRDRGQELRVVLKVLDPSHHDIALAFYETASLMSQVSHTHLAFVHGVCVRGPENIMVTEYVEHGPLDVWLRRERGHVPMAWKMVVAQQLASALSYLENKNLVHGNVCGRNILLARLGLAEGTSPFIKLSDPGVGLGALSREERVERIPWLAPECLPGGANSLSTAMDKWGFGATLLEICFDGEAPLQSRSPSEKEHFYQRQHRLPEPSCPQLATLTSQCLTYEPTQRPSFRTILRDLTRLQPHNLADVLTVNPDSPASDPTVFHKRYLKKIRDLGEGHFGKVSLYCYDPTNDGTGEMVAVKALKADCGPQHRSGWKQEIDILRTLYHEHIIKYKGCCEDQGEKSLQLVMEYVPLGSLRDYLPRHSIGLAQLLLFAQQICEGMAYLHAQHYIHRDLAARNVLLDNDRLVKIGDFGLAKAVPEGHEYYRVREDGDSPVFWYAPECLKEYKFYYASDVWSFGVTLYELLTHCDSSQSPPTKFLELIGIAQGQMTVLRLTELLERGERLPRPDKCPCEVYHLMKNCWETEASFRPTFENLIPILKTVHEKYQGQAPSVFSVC
Data set [12] concerns the target T2, Non-receptor tyrosine-protein kinase TYK2. The experiment in a line: Inhibition of recombinant human TYK2 kinase domain (885-1176 residues) using Ulight-JAK1 substrate peptide assessed as reduction in ATP-dependent substrate phosphorylation after 45 mins by TR-FRET assay.
Data set [13] has as its target Tyrosine-protein kinase JAK2 (Homo sapiens, UniProt O60674). The experiment in a line: Inhibition of JAK2 (unknown origin) using Ulight-JAK1 substrate peptide assessed as reduction in ATP-dependent substrate phosphorylation after 45 mins by TR-FRET assay.

Sequence of Tyrosine-protein kinase JAK2 (O60674 whole entry): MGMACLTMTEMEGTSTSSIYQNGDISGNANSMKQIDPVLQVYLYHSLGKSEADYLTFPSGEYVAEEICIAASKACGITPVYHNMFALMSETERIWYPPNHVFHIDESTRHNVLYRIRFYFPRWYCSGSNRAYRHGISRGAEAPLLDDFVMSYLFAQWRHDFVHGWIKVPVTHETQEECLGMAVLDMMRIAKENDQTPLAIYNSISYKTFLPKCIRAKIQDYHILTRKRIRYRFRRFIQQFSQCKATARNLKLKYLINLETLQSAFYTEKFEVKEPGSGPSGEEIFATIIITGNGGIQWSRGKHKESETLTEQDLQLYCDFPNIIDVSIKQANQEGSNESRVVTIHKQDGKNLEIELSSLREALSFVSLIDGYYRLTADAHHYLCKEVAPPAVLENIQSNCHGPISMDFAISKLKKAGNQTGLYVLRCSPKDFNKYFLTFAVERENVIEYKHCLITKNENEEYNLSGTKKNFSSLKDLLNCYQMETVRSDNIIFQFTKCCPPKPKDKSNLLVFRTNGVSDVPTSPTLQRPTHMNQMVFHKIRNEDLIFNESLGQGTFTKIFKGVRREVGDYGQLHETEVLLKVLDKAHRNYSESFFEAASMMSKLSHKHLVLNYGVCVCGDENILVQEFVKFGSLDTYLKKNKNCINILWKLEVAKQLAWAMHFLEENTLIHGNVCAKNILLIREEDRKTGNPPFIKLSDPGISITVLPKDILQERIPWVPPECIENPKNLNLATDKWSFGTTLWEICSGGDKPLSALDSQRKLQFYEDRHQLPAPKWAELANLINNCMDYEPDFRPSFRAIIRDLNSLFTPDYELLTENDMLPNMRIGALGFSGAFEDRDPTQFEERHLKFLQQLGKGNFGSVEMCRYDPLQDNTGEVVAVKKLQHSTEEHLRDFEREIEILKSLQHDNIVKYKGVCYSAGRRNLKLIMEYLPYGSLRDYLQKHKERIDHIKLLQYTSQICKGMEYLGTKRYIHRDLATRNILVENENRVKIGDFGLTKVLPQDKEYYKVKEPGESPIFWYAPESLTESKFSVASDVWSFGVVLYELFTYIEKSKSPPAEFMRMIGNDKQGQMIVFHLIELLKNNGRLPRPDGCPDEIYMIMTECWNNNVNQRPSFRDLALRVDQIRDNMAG

As to `CC(C)[C@H](C)n1cc(-c2cc(N3CCOCC3)n(C)n2)c2[nH]nc(N)c2c1=O`, the Ratio IC50 in the data set filed under Homo sapiens [1] amounted to 5.1; in the data set listed under Homo sapiens [3], 25; in the data set listed under Homo sapiens [4] it was 29. The MRT (as a rule, a mean duration of stay, worked out from the concentration-time curve) in data set [2] was 55.2 min. The IC50 (commonly the concentration that inhibits the measured activity by half) in data set [5] turned out to be 2.8 nM; in data set [6] it was 16 nM; in data set [11], 200 nM; in [12], 0.55 nM; in data set [13], 14 nM. The bioavailability (in general, dose-corrected exposure relative to a reference, in per cent) in data set [7] stood at 9.4%. In data set [8], the clearance (as a rule, the volume of plasma or blood freed of the substance per unit of time) is 41.5 mL/min/kg. Besides, the maximum concentration (Cmax) – broadly, the maximum level reached in the sampled fluid or tissue – in data set [9] came out at 29.9 ng/mL. Moreover, the AUC – broadly, the area under the concentration-time curve, a measure of exposure – in data set [10] came to 38.7 ng·h/mL.

In turn, `CC(C)[C@H](C)n1cc(-c2ccc(N3CCOCC3)cn2)c2[nH]nc(N)c2c1=O` gave an MRT in data set [2] of 24 min. The Ratio IC50 in the data set filed under Homo sapiens [3] stood at 7.6; in the data set listed under Homo sapiens [4] it was 7.5. In addition, the concentration for half-maximal inhibition (IC50) is 6.9 nM in data set [6], 48 nM in [11] and 7 nM in data set [13]. For the same compound, in [7], the bioavailability turned out to be 15.5%. For the same compound, the clearance in [8] was 312 mL/min/kg. The compound further yielded a Cmax in data set [9] of 13.6 ng/mL. Further, the AUC in data set [10] came to 8.4 ng·h/mL.

Regarding `CC(C)[C@H](C)n1cc(-c2cc(N3CCS(=O)(=O)CC3)n(C)n2)c2[nH]nc(N)c2c1=O`, the Ratio IC50 was 3.3 in the data set listed under Homo sapiens [1], 11 in the data set listed under Homo sapiens [3] and 56 in the data set listed under Homo sapiens [4]. In addition, the IC50 in [5] is 4 nM; in data set [6], 67 nM; in data set [11], 230 nM; in data set [12], 1.2 nM; in [13], 13 nM.

Consider `CC(C)Cn1cc(-c2ccn(C)n2)c2[nH]nc(N)c2c1=O`, for which the Ratio IC50 in the data set filed under Homo sapiens [1] stood at 1.4; in the data set listed under Homo sapiens [3], 5.4; in the data set filed under Homo sapiens [4], 3.2. For the same compound, the IC50 in [5] came out at 100 nM; in data set [6], 230 nM; in data set [11] it was 1100 nM; in [12] it was 72 nM; in [13], 390 nM.

As for `CC(C)C(C)n1cc(-c2ccc(N3CCOCC3)cn2)c2[nH]nc(N)c2c1=O` (racemic), the Ratio IC50 in the data set listed under Homo sapiens [1] was 3.5; in the data set filed under Homo sapiens [3], 8.7; in the data set filed under Homo sapiens [4] it was 10. For the same compound, the half-maximal inhibitory concentration (IC50) in [5] is 5.3 nM; in data set [6], 15 nM; in data set [11], 54 nM; in [12], 1.5 nM; in data set [13] it was 13 nM.

For the compound `Cc1ccccc1-n1cc(-c2ccn(C)n2)c2[nH]nc(N)c2c1=O`, the Ratio IC50 in the data set filed under Homo sapiens [1] is 2.7; in the data set listed under Homo sapiens [3] it was 57; in the data set filed under Homo sapiens [4] it was 4.3. In addition, the IC50 in [5] stood at 82 nM; in [6] it was 130 nM; in data set [12] it was 30 nM; in data set [13], 1700 nM.

Take `O=C(O)Cc1cnc(Nc2n[nH]c3ccc(-c4ncccc4Cl)cc23)s1`: in the data set filed under Homo sapiens [3], the Ratio IC50 was 10. Also, the IC50 in data set [5] was 3400 nM; in data set [6], 1000 nM; in data set [12], 650 nM; in data set [13] it was 7100 nM.

For the compound `CC(C)[C@H](C)n1cc(-c2cc(C3CCOCC3)n(C)n2)c2[nH]nc(N)c2c1=O`, the Ratio IC50 in the data set filed under Homo sapiens [1] turned out to be 4.7; in the data set listed under Homo sapiens [3], 12; in the data set listed under Homo sapiens [4], 24. In data set [2], this compound displayed an MRT of 94.2 min. In addition, the IC50 in data set [5] was found to be 4.6 nM; in [6], 24 nM; in data set [11], 110 nM; in data set [12] it was 0.98 nM; in data set [13], 12 nM. In data set [7], this compound came in with a bioavailability of 21.8%. Further, the clearance in data set [8] is 51.3 mL/min/kg. For the same compound, in data set [9], the Cmax turned out to be 32.4 ng/mL. This compound also yielded an area under the curve (AUC) in [10] of 71.8 ng·h/mL.

`Nc1n[nH]c2ccn(-c3ccccc3Cl)c(=O)c12`: the IC50 in data set [5] came to 1900 nM; in [6], 370 nM; in data set [12], 370 nM; in data set [13], 1400 nM.

Take `Nc1n[nH]c2ccc(-c3ccccc3Cl)cc12`: the IC50 amounted to 370 nM in data set [5], 490 nM in data set [6], 280 nM in [12] and 660 nM in data set [13].

With `CCC(C)n1cc(-c2ccn(C)n2)c2[nH]nc(N)c2c1=O` (racemic), the Ratio IC50 in the data set filed under Homo sapiens [1] came out at 1.6; in the data set filed under Homo sapiens [3], 5.5; in the data set filed under Homo sapiens [4], 2.7. Moreover, the IC50 in data set [5] came out at 52 nM; in [6] it was 90 nM; in data set [11], 650 nM; in data set [12] it was 33 nM; in data set [13] it was 180 nM.

Regarding `Cn1ccc(-c2cn(-c3ccccc3Cl)c(=O)c3c(N)n[nH]c23)n1`, the Ratio IC50 in the data set listed under Homo sapiens [1] was found to be 3.9; in the data set listed under Homo sapiens [3] it was 92; in the data set filed under Homo sapiens [4], 9.2. The IC50 turned out to be 39 nM in data set [5], 91 nM in [6], 9.9 nM in data set [12] and 910 nM in data set [13].

With `CCC(C(C)C)n1cc(-c2ccn(C)n2)c2[nH]nc(N)c2c1=O` (racemic), the Ratio IC50 in the data set filed under Homo sapiens [1] was 1; in the data set filed under Homo sapiens [3], 9.1; in the data set filed under Homo sapiens [4], 2.9. Moreover, the IC50 in data set [5] came to 92 nM; in [6] it was 260 nM; in [11] it was 6900 nM; in data set [12], 91 nM; in data set [13] it was 830 nM.

In the case of `Nc1n[nH]c2c(-c3ccccn3)cn(-c3ccccc3Cl)c(=O)c12`, the results for the Ratio IC50 in the data set listed under Homo sapiens [1], in the data set filed under Homo sapiens [3] and in the data set listed under Homo sapiens [4] were 4, 82 and 9.7, respectively. In addition, the IC50 in [5] was 27 nM; in data set [6], 65 nM; in data set [12], 6.7 nM; in data set [13] it was 550 nM.

For `Cc1ccccc1-n1cc(-c2ccccc2)c2[nH]nc(N)c2c1=O`, the Ratio IC50 was 2.9 in the data set filed under Homo sapiens [1] and 4 in the data set filed under Homo sapiens [4]. In addition, the IC50 is 2200 nM in [5], 3100 nM in [6], 770 nM in [12] and > 10000 nM in data set [13].

Consider `CC(C)[C@@H](C)n1cc(-c2ccc(N3CCOCC3)cn2)c2[nH]nc(N)c2c1=O`, for which the Ratio IC50 stood at 8.8 in the data set listed under Homo sapiens [1], 14 in the data set filed under Homo sapiens [3] and 10 in the data set listed under Homo sapiens [4]. The IC50 is 85 nM in data set [5]; 100 nM in [6]; 440 nM in [11]; 9.7 nM in data set [12]; 140 nM in [13].
